ChEMBL document CHEMBL1156187, “Discovery of a selective small-molecule melanocortin-4 receptor agonist with efficacy in a pilot study of sexual dysfunction in humans” (J Med Chem, 2010)

How the values were obtained:
[1] = molecular target: T1, Melanocortin receptor 4 (Homo sapiens, UniProt P32245); assay: Agonist activity at human recombinant MC4 receptor expressed in CHO cells by cAMP responsive beta lactamase reporter gene assay; type: functional, cell-based
[2] = molecular target: T2, Melanocortin receptor 3 (Homo sapiens, UniProt P41968); assay: Agonist activity at human recombinant MC3 receptor expressed in CHO cells assessed as cAMP accumulation by enzyme fragment complementation assay; type: functional, cell-based
T2 sequence (P41968 whole entry, the tested form may be a part): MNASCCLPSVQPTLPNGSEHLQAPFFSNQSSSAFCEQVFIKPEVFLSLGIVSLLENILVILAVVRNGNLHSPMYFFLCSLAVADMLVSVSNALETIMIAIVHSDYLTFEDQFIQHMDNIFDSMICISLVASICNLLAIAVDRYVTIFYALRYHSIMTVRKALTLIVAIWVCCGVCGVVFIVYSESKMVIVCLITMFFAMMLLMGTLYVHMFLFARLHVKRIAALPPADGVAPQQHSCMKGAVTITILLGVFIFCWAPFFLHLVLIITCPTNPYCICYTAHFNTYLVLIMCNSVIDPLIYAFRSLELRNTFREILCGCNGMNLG

[3] = molecular target: Melanocyte-stimulating hormone receptor (Homo sapiens, UniProt Q01726); assay: Agonist activity at human recombinant MC1 receptor expressed in HEK293 cells assessed as cAMP accumulation by enzyme fragment complementation assay; type: functional, cell-based
Sequence of Melanocyte-stimulating hormone receptor (Q01726 whole entry, the tested form may be a part): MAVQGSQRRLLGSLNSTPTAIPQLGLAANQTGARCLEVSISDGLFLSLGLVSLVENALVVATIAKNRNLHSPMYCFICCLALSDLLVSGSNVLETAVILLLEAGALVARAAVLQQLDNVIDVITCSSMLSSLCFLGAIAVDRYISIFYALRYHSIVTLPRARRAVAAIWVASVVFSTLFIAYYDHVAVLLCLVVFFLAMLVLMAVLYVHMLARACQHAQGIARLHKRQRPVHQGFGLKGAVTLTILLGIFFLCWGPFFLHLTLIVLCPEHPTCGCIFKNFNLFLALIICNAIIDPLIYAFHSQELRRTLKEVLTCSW

[4] = molecular target: T3, Melanocortin receptor 5 (Homo sapiens, UniProt P33032); assay: Agonist activity at human recombinant MC5 receptor expressed in HEK293 cells assessed as cAMP accumulation by beta lactamase reporter gene assay; type: functional, cell-based
T3 sequence (P33032 whole entry): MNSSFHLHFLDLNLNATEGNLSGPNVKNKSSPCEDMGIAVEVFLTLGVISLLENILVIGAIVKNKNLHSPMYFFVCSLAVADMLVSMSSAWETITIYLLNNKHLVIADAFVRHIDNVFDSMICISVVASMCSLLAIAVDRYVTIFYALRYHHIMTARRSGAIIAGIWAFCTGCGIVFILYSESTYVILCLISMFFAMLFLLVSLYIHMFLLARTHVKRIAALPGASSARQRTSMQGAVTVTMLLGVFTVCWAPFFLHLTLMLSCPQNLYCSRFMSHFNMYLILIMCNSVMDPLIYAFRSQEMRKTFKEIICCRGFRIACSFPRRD

[5] = molecular target: T1, Melanocortin receptor 4; assay: Displacement of [125I]-MT-II from human recombinant MC4 receptor expressed in CHO cells by scintillation counting
[6] = molecular target: T2, Melanocortin receptor 3; assay: Agonist activity at human recombinant MC3 receptor expressed in CHO cells assessed as cAMP accumulation by enzyme fragment complementation assay relative to […]; type: functional, cell-based
[7] = molecular target: T3, Melanocortin receptor 5; assay: Agonist activity at human recombinant MC5 receptor expressed in HEK293 cells assessed as cAMP accumulation by beta lactamase reporter gene assay relative to alpha melanocyte-stimulating hormone; type: functional, cell-based
[8] = Lipophilicity, log D at pH 7.4; type: physicochemical; settings: buffer
[9] = Intrinsic clearance in human liver microsome measured per mg of protein; type: ADME; settings: liver microsomes

T1 sequence (P32245 whole entry, the tested form may be a part): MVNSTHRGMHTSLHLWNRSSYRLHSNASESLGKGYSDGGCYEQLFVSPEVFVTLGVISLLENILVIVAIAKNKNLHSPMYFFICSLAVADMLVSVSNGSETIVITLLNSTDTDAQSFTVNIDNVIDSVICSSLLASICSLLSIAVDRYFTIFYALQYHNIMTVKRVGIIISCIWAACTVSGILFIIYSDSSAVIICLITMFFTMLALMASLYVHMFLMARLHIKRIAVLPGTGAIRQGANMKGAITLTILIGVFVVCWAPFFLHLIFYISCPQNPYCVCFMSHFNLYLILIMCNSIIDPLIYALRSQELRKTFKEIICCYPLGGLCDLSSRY

| EC50 [1] [nM] | microsomal CLint [9] [µL/min/mg] | SMILES | other results |
| --- | --- | --- | --- |
| 52 |  | CC(C)N1C[C@@H](C(=O)N2C[C@@H](C)[C@](O)(c3ccc(F)cc3)[C@@H](C)C2)[C@H](c2ccc(F)cc2F)C1 |  |
| 69 |  | CCN1C[C@@H](C(=O)N2C[C@@H](C)[C@](O)(c3ccc(F)c(F)c3)[C@@H](C)C2)[C@H](c2ccc(F)cc2F)C1 |  |
| 73 |  | CC(C)CN1C[C@H](C(=O)N2C[C@@H](C)[C@](O)(c3ccccc3)[C@@H](C)C2)[C@@H](c2ccc(F)cc2F)C1 |  |
| 89 |  | CC(C)[C@@]1(O)[C@H](C)CN(C(=O)[C@H]2CN(c3cccnn3)C[C@@H]2c2ccc(F)cc2F)C[C@@H]1C |  |
| 51 |  | CCN1C[C@@H](C(=O)N2C[C@@H](C)[C@](O)(c3ccc(F)cc3F)[C@@H](C)C2)[C@H](c2ccc(F)cc2F)C1 |  |
| 3900 |  | C[C@@H]1CN(C(=O)C2CN(C(C)(C)C)CC2c2ccc(F)cc2F)C[C@H](C)[C@@]1(O)c1ccccc1 (mixture of isomers) |  |
| 347 |  | C[C@@H]1CN(C(=O)[C@@H]2CN(C(C)(C)C)C[C@H]2c2ccc(F)cc2F)C[C@H](C)[C@@]1(O)c1ccc(C#N)cc1 |  |
| 243 |  | C[C@@H]1CN(C(=O)[C@H]2CN(c3ncccn3)C[C@@H]2c2ccc(F)cc2F)C[C@H](C)[C@@]1(O)c1ccccc1 | EC50 [2]: > 26700 nM; EC50 [3]: > 10000 nM; EC50 [4]: > 11100 nM; Ki [5]: 300 nM |
| 111 |  | C[C@@H]1CN(C(=O)[C@H]2CN(c3cnccn3)C[C@@H]2c2ccc(F)cc2F)C[C@H](C)[C@@]1(O)c1ccccc1 |  |
| 82 |  | C[C@@H]1CN(C(=O)[C@H]2CN(c3cccnn3)C[C@@H]2c2ccc(F)cc2F)C[C@H](C)[C@@]1(O)C1CC1 | Emax [6]: 42%; EC50 [2]: 4130 nM; EC50 [3]: > 16700 nM; Ki [5]: 172 nM |
| 717 |  | C[C@@H]1CN(C(=O)[C@@H]2CN(C)C[C@H]2c2ccc(F)cc2F)C[C@H](C)[C@@]1(O)c1ccccc1 | EC50 [2]: > 19100 nM; EC50 [3]: > 7810 nM; EC50 [4]: > 20000 nM; Ki [5]: 1070 nM |
| 15 |  | C[C@@H]1CN(C(=O)[C@H]2CN(c3ccccn3)C[C@@H]2c2ccc(F)cc2F)C[C@H](C)[C@@]1(O)c1ccccc1 | Emax [6]: 78%; EC50 [2]: 71 nM; EC50 [3]: > 16700 nM; EC50 [4]: 960 nM; Emax [7]: 29%; Ki [5]: 79 nM |
| 61 | 73 | CCN1C[C@@H](C(=O)N2C[C@@H](C)[C@](O)(c3cccc(F)c3)[C@@H](C)C2)[C@H](c2ccc(F)cc2F)C1 | EC50 [2]: > 13500 nM; EC50 [3]: > 8250 nM; EC50 [4]: 6410 nM; Emax [7]: 92%; logD [8]: 2.9; Ki [5]: 355 nM |
| > 10000 |  | C[C@@H]1CN(C(=O)[C@H]2CN(C(C)(C)C)C[C@@H]2c2ccc(F)cc2F)C[C@H](C)[C@@]1(O)c1ccccc1 |  |
| 147 |  | CCN1C[C@@H](C(=O)N2C[C@@H](C)[C@](O)(c3ccc(F)cc3)[C@@H](C)C2)[C@H](c2ccc(F)cc2F)C1 |  |
| 108 | < 7 | C[C@@H]1CN(C(=O)[C@@H]2CN(C(C)(C)C)C[C@H]2c2ccc(F)cc2F)C[C@H](C)[C@@]1(O)c1ccc(C(F)(F)F)cc1 | logD [8]: 4.1 |
| 15 | 22 | C[C@@H]1CN(C(=O)[C@@H]2CN(C(C)(C)C)C[C@H]2c2ccc(F)cc2F)C[C@H](C)[C@@]1(O)c1ccc(F)c(F)c1 | logD [8]: 3.5 |
| 220 |  | CC(C)N1C[C@@H](C(=O)N2C[C@@H](C)[C@](O)(c3ccc(F)cc3F)[C@@H](C)C2)[C@H](c2ccc(F)cc2F)C1 |  |
| 4 | 310 | C[C@@H]1CN(C(=O)[C@H]2CN(c3cccnn3)C[C@@H]2c2ccc(F)cc2F)C[C@H](C)[C@@]1(O)c1ccc(F)cc1 | logD [8]: 3.7 |
| 365 |  | C[C@@H]1CN(C(=O)[C@@H]2CN(C)C[C@H]2c2ccc(F)cc2F)C[C@H](C)[C@@]1(O)c1ccc(F)cc1 | EC50 [2]: > 33400 nM; EC50 [3]: > 6150 nM; EC50 [4]: 15000 nM; Emax [7]: 100%; Ki [5]: 346 nM |

| EC50 [1] [nM] | microsomal CLint [9] [µL/min/mg] | SMILES | other results |
| --- | --- | --- | --- |
| 117 |  | C[C@@H]1CN(C(=O)[C@H]2CN(c3cncnc3)C[C@@H]2c2ccc(F)cc2F)C[C@H](C)[C@@]1(O)c1ccccc1 |  |
| 85 |  | CCN1C[C@@H](C(=O)N2C[C@@H](C)[C@](O)(c3ccccc3)[C@@H](C)C2)[C@H](c2ccc(F)cc2F)C1 |  |
| 1170 |  | CC(C)(C)N1C[C@@H](C(=O)N2CCC(O)(c3ccccc3)CC2)[C@H](c2ccc(F)cc2F)C1 |  |
| 255 | 13 | C[C@@H]1CN(C(=O)[C@@H]2CNC[C@H]2c2ccc(F)cc2F)C[C@H](C)[C@@]1(O)c1ccc(F)cc1 | logD [8]: 1.8 |
| 159 |  | C[C@@H]1CN(C(=O)[C@@H]2CNC[C@H]2c2ccc(F)cc2F)C[C@H](C)[C@@]1(O)c1cccc(F)c1 |  |
| 644 |  | C[C@@H]1CN(C(=O)[C@@H]2CN(C(C)(C)C)C[C@H]2c2ccc(F)cc2F)C[C@H](C)[C@@]1(O)c1cccc(C#N)c1 |  |
| 374 | 84 | COCCN1C[C@H](C(=O)N2C[C@@H](C)[C@](O)(c3ccccc3)[C@@H](C)C2)[C@@H](c2ccc(F)cc2F)C1 | logD [8]: 3.1 |
| 130 |  | C[C@@H]1CN(C(=O)[C@@H]2CN(C)C[C@H]2c2ccc(F)cc2F)C[C@H](C)[C@@]1(O)c1ccc(Cl)cc1 |  |
| 6 | 243 | C[C@@H]1CN(C(=O)[C@H]2CN(c3cccnn3)C[C@@H]2c2ccc(F)cc2F)C[C@H](C)[C@@]1(O)c1ccccc1 | Emax [6]: 89%; EC50 [2]: 490 nM; EC50 [3]: > 3070 nM; EC50 [4]: > 20000 nM; logD [8]: 3.3; Ki [5]: 10 nM |
| 288 | 7 | C[C@@H]1CN(C(=O)[C@@H]2CNC[C@H]2c2ccc(F)cc2F)C[C@H](C)[C@@]1(O)c1ccc(F)c(F)c1 |  |
| 81 |  | C[C@@H]1CN(C(=O)[C@H]2CN(CC3CC3)C[C@@H]2c2ccc(F)cc2F)C[C@H](C)[C@@]1(O)c1ccccc1 |  |
| 19 |  | CCCN1C[C@H](C(=O)N2C[C@@H](C)[C@](O)(c3ccccc3)[C@@H](C)C2)[C@@H](c2ccc(F)cc2F)C1 |  |
| 626 |  | CC(C)[C@@]1(O)[C@H](C)CN(C(=O)[C@@H]2CN(C(C)(C)C)C[C@H]2c2ccc(F)cc2F)C[C@@H]1C |  |
| 3630 |  | C[C@@H]1CN(C(=O)[C@@H]2CN(C(C)(C)C)C[C@H]2c2ccc(F)cc2F)C[C@H](C)[C@@]1(O)c1cccnc1 |  |
| 11100 |  | C[C@@H]1CN(C(=O)[C@@H]2CN(C(C)(C)C)C[C@H]2c2ccc(F)cc2F)C[C@H](C)[C@@]1(O)c1cncnc1 |  |
| 257 | 28 | CC(C)N1C[C@@H](C(=O)N2C[C@@H](C)[C@](O)(c3ccc(F)c(F)c3)[C@@H](C)C2)[C@H](c2ccc(F)cc2F)C1 | logD [8]: 3.3 |
| 53 |  | COc1ccc([C@@]2(O)[C@H](C)CN(C(=O)[C@@H]3CN(C(C)(C)C)C[C@H]3c3ccc(F)cc3F)C[C@@H]2C)cc1 |  |
| 91 | 34 | CC(C)N1C[C@@H](C(=O)N2C[C@@H](C)[C@](O)(c3ccc(Cl)cc3)[C@@H](C)C2)[C@H](c2ccc(F)cc2F)C1 | logD [8]: 3.5 |
| 962 | 14 | C[C@@H]1CN(C(=O)[C@@H]2CN(C(C)(C)C)C[C@H]2c2ccc(F)cc2F)C[C@H](C)[C@@]1(O)C1CC1 | logD [8]: 2.2 |
| 40 | 70 | CC(C)N1C[C@@H](C(=O)N2C[C@@H](C)[C@](O)(c3cccc(F)c3)[C@@H](C)C2)[C@H](c2ccc(F)cc2F)C1 | logD [8]: 3.2 |
